Earlier results in patent publication US5389382A, “Hydrosols of pharmacologically active agents and their pharmaceutical compositions comprising them” (Sandoz Ltd., priority 1986, dated 1995).

Conditions: at room temperature

water solubility: below 0.1 g/100 ml
Compound: Cc1ccc2c(-c3ccccc3)nc(=O)n(C(C)C)c2c1 [Proquazone, 1-isopropyl-7-methyl-4-phenyl-2(1H)-quinazolone]
